How the values were obtained:
Pseudomonas aeruginosa = details: cited from earlier work
[1] = test system: tumor and cancer in mice experimental models; details: skin, bile duct, esophageal, large intestinal, oral cancer and liver tumor models; cited from earlier work
[2] = test system: Mycobacterium tuberculosis H37Ra strain (ATCC 25166); experiment: Microplate Alamar Blue assay (MABA), growth inhibition; assay type: cell-based; details: two-fold serial dilution from 50 to 0.025 μg/ml, read-out: MIC against M. tuberculosis H37Ra
Method: Mycobacterium tuberculosis H37Ra strain (ATCC 25166) was grown in 100 ml of Middlebrook 7H9 broth supplemented with 0.2% glycerol, 1.0 gm/L of casitone, 10% OADC, and 0.05% Tween 80. The complete medium was referred to as 7H9GC-Tween. The bacteria were incubated in 500-ml flasks on a rotary shaker at 200 rpm and 37° C. until the optical density at 550 nm reached 0.4-0.5. The bacteria were washed twice with phosphate-buffered saline and then suspended in 20 ml of phosphate-buffered saline. The suspension was passed through an 8-μm-pore-size filter to eliminate clumps. The number of the bacteria in the filtrates was counted by plating the bacteria in Middlebrook 7H10 agar. The filtrates were stored at −80° C.
Anti-tuberculous testing was performed in a 96-well microplate as previously described (Collins, L. and Franzblau, S. G. 1997). […]
The plates were sealed with Parafilm and were incubated at 37° C. for 5 days. […] The results were recorded at 24 h post-reagent addition.
A blue color in the well was interpreted as no growth, reflecting the activity of the test compound in the well. A pink color was scored as growth and reflected the lack of activity of the test compound. A few wells appeared violet after 24 h of incubation, but they invariably changed to pink after another day of incubation and thus were scored as growth (while the adjacent blue wells remained blue). […]

Ebstein-Barr virus = details: cited from earlier work
xanthine oxidase = xanthine oxidase (Homo sapiens, UniProt P47989); details: cited from earlier work
Candida albicans = details: cited from earlier work
[3] = test system: Rhizopus stolonifer, Penicillium expansum, Aspergilus niger; details: compared with MIC for dermatophytic fungi; cited from earlier work
NADPH oxidase = details: cited from earlier work
Staphylococcus aureus = details: cited from earlier work
[4] = test system: nitric oxide synthase production in RAW264 (mice macrophage) cell line; details: concentration of 250 (unit not given), cited from earlier work
[5] = test system: dermatophytic fungi such as Trichophyton mentagrophytes, Trichophyton rubrum, Trichophyton concentricum and Epidermophyton floccosum; details: cited from earlier work
Bacillus subtilis = details: cited from earlier work
Vero cells = details: African green monkey, 3 days
Escherichia coli = details: cited from earlier work

xanthine oxidase, sequence (P47989 whole entry, species assumed): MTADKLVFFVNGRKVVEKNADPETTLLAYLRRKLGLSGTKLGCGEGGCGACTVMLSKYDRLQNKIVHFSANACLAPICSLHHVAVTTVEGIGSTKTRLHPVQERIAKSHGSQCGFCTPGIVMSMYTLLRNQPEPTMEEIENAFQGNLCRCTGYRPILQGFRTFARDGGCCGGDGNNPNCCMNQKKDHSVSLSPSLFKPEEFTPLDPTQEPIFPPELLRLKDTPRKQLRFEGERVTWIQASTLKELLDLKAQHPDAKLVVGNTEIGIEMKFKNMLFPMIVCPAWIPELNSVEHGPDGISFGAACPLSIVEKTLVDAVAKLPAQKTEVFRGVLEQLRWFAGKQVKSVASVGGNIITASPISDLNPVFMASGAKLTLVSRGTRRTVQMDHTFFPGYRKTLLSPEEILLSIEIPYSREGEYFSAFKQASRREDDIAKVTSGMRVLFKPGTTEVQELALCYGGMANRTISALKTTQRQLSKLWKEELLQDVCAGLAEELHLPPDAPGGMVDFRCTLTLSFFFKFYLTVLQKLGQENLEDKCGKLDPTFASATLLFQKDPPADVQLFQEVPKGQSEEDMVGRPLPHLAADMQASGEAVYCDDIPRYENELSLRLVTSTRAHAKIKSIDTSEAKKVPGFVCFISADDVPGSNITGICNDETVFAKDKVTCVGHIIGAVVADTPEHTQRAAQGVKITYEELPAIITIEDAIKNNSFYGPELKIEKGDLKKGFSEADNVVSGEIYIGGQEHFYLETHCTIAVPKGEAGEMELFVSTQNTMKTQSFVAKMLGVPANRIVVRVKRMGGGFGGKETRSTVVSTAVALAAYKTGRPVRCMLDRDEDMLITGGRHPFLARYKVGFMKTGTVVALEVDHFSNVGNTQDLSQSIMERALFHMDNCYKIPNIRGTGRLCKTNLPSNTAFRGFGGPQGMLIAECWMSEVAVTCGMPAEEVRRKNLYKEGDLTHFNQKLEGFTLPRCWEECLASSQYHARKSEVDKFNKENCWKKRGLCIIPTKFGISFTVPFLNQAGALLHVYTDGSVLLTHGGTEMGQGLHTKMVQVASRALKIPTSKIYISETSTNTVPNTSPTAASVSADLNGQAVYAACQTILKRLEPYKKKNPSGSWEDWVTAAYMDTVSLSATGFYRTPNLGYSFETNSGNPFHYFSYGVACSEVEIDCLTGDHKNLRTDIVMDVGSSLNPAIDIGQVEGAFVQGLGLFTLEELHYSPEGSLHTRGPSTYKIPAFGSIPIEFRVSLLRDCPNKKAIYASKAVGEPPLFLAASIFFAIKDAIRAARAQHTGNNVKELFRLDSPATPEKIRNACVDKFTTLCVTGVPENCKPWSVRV

In the case of `C=CC(OC(C)=O)c1ccc(OC(C)=O)cc1` (stereo not drawn) [1′-acetoxychavicol acetate, 1′-Acetoxychavicol acetate], the “growth inhibition of Pseudomonas aeruginosa” value (Pseudomonas aeruginosa) is given as “could not inhibit the growth”, the “inhibition of tumor and cancer formation” value [1] is given as “can inhibit the formation of many tumor and cancer” and the MIC [2] is given as 0.1 µg/mL. The “inhibition of activation of tumor virus” value (Ebstein-Barr virus) was “could inhibit the activation of tumor virus”, the “inhibition of the function of xanthine oxidase” value (xanthine oxidase) was “could inhibit the function” and the “growth inhibition of Candida albicans” value (Candida albicans) was “could not inhibit the growth”. The “growth inhibition of Rhizopus stolonifer, Penicillium expansum, Aspergilus niger” value [3] was “inhibited the growth of several other fungi”, the “inhibition of the function of NADPH oxidase” value (NADPH oxidase) was “could inhibit the function” and the “growth inhibition of Staphylococcus aureus” value (Staphylococcus aureus) was “could slightly inhibit the growth”. For the same molecule, the “inhibition of nitric oxide synthase production, lipopolysaccharide stimulated” value ([4]; 100 ng/ml bacterial lipopolysaccharide) was “could completely inhibit”, the “inhibition of nitric oxide synthase production, interferon-γ stimulated” value ([4]; 100 ng/ml interferon-γ) was 80% and the “minimal inhibitory concentrations (MIC) against dermatophytic fungi” value [5] was 50 to 250 µg/mL. The “growth inhibition of Bacillus subtilis” value (Bacillus subtilis) was “could not inhibit the growth”, the “toxic level against Vero cells (concentration giving less than half the viable cells of negative control)” value (Vero cells) was 2.0 µg/mL and the “growth inhibition of Escherichia coli” value (Escherichia coli) was “could not inhibit the growth”.

From patent US20020192262A1, “1'-Acetoxychavicol acetate for tuberculosis treatment” (National Science and Technology Development Agency, priority 2001, published 2002)
